Test results published in US12691112B2, “FGFR tyrosine kinase inhibitors for the treatment of urothelial carcinoma” (Janssen Pharmaceutica NV, priority 2019, dated 2026).
Where two headings read alike, the source gives them in different places.

System: subjects with metastatic or surgically unresectable urothelial cancer
Method: Study treatment was administered on 28-day cycles. […] Patients were randomized 1:1 to 28-day cycles to the following 2 regimens until a regimen was selected for further study: Regimen 1 (10 mg once daily intermittent (7 days on/7 days); Regimen 2 (6 mg once daily continuous). Randomization was stratified according to performance status (0 to 1 vs. 2), hemoglobin value (<10 vs. ≥10 g per dl), FGFR alteration type (mutation vs. fusion), prior treatment status (chemotherapy-resistant vs. chemotherapy naïve), and disease distribution (presence or absence of visceral [liver, lung, bone]metastases). Starting dose selection was based on phase 1 efficacy and tolerability.
Based on interim analysis and pharmacokinetic-pharmacodynamic modeling of serum phosphate levels, starting dose was increased to 8 mg per day continuous (Regimen 3). Thus, after interim analysis, this became a single-arm study. […] Treatment continued until disease progression or unacceptable adverse event(s) per investigator.
Safety was evaluated based on clinical laboratory tests, physical exams, electrocardiograms, and ophthalmology examinations. Adverse events and abnormalities were assessed by investigator and graded per NCI CTCAE v.4.0
Prophylactic measures were taken to minimize risk of common adverse events related to FGFR inhibition. To reduce risk of hyperphosphatemia, a low-phosphate diet was recommended for all patients (600 to 800 mg of dietary phosphate intake per day). To reduce the risk of skin effects, the application of alcohol-free emollient moisturizing cream and avoidance of unnecessary exposure to sunlight, soap, perfumed products, and hot baths was recommended. Patients were asked to keep their fingers and toes clean and nails trimmed to reduce risk of nail effects.
Additional ophthalmology examinations were performed if clinically indicated.

Structure (SMILES): COc1cc(OC)cc(N(CCNC(C)C)c2ccc3ncc(-c4cnn(C)c4)nc3c2)c1 [erdafitinib, N-(3,5-dimethoxy-phenyl)-N′-(1-methylethyl)-N-[3-(1-methyl-1H-pyrazol-4-yl)quinoxalin-6-yl]ethane-1,2-diamine]
- Serious treatment-emergent: Dyspnea (6 mg continuous, n = 78): 1 (1) no. (%)
- Serious treatment-emergent: Eye disorders (6 mg continuous, n = 78): 3 (4) no. (%)
- Serious treatment-emergent: Gastrointestinal disorders (6 mg continuous, n = 78): 8 (10) no. (%)
- Serious treatment-emergent: Infections and infestations (6 mg continuous, n = 78): 13 (17) no. (%)
- Serious treatment-emergent: Metabolism and nutrition disorders (6 mg continuous, n = 78): 3 (4) no. (%)
- Serious treatment-emergent: Nervous system disorders (6 mg continuous, n = 78): 5 (6) no. (%)
- Serious treatment-emergent: Renal and urinary disorders (6 mg continuous, n = 78): 5 (6) no. (%)
- Serious treatment-emergent: Respiratory, thoracic, mediastinal disorders (6 mg continuous, n = 78): 3 (4) no. (%)
- Serious treatment-emergent: Urinary tract infection (6 mg continuous, n = 78): 4 (5) no. (%)
- Serious treatment-emergent: Urosepsis (6 mg continuous, n = 78): 3 (4) no. (%)
- Total number of patients with serious treatment-emergent adverse events (6 mg continuous, n = 78): 39 (50) no. (%)
- Serious treatment-emergent: Dyspnea (8 mg continuous, n = 99): 2 (2) no. (%)
- Serious treatment-emergent: Eye disorders (8 mg continuous, n = 99): 9 (9) no. (%)
- Serious treatment-emergent: Gastrointestinal disorders (8 mg continuous, n = 99): 8 (8) no. (%)
- Serious treatment-emergent: Infections and infestations (8 mg continuous, n = 99): 9 (9) no. (%)
- Serious treatment-emergent: Metabolism and nutrition disorders (8 mg continuous, n = 99): 2 (2) no. (%)
- Serious treatment-emergent: Nervous system disorders (8 mg continuous, n = 99): 1 (1) no. (%)
- Serious treatment-emergent: Renal and urinary disorders (8 mg continuous, n = 99): 10 (10) no. (%)
- Serious treatment-emergent: Respiratory, thoracic, mediastinal disorders (8 mg continuous, n = 99): 3 (3) no. (%)
- Serious treatment-emergent: Urinary tract infection (8 mg continuous, n = 99): 3 (3) no. (%)
- Serious treatment-emergent: Urosepsis (8 mg continuous, n = 99): 2 (2) no. (%)
- Total number of patients with serious treatment-emergent adverse events (8 mg continuous, n = 99): 39 (39) no. (%)
- Treatment-related Alanine aminotransferase increased, any grade (8 mg continuous, n = 99): 12 (12) no. (%)
- Treatment-related Alanine aminotransferase increased, grade 1 (8 mg continuous, n = 99): 9 (9) no. (%)
- Treatment-related Alanine aminotransferase increased, grade 2 (8 mg continuous, n = 99): 2 (2) no. (%)
- Treatment-related Alanine aminotransferase increased, grade 3 (8 mg continuous, n = 99): 1 (1) no. (%)
- Treatment-related Alopecia, any grade (8 mg continuous, n = 99): 27 (27) no. (%)
- Treatment-related Alopecia, grade 1 (8 mg continuous, n = 99): 21 (21) no. (%)
- Treatment-related Alopecia, grade 2 (8 mg continuous, n = 99): 6 (6) no. (%)
- Treatment-related Alopecia, grade 3 (8 mg continuous, n = 99): 0 no. (%)
- Treatment-related Asthenia, any grade (8 mg continuous, n = 99): 13 (13) no. (%)
- Treatment-related Asthenia, grade 1 (8 mg continuous, n = 99): 2 (2) no. (%)
- Treatment-related Asthenia, grade 2 (8 mg continuous, n = 99): 9 (9) no. (%)
- Treatment-related Asthenia, grade 3 (8 mg continuous, n = 99): 2 (2) no. (%)
- Treatment-related Decreased appetite, any grade (8 mg continuous, n = 99): 25 (25) no. (%)
- Treatment-related Decreased appetite, grade 1 (8 mg continuous, n = 99): 11 (11) no. (%)
- Treatment-related Decreased appetite, grade 2 (8 mg continuous, n = 99): 14 (14) no. (%)
- Treatment-related Decreased appetite, grade 3 (8 mg continuous, n = 99): 0 no. (%)
- Treatment-related Diarrhea, any grade (8 mg continuous, n = 99): 37 (37) no. (%)
- Treatment-related Diarrhea, grade 1 (8 mg continuous, n = 99): 21 (21) no. (%)
- Treatment-related Diarrhea, grade 2 (8 mg continuous, n = 99): 12 (12) no. (%)
- Treatment-related Diarrhea, grade 3 (8 mg continuous, n = 99): 4 (4) no. (%)
- Treatment-related Dry eye, any grade (8 mg continuous, n = 99): 19 (19) no. (%)
- Treatment-related Dry eye, grade 1 (8 mg continuous, n = 99): 14 (14) no. (%)
- Treatment-related Dry eye, grade 2 (8 mg continuous, n = 99): 4 (4) no. (%)
- Treatment-related Dry eye, grade 3 (8 mg continuous, n = 99): 1 (1) no. (%)
- Treatment-related Dry mouth, any grade (8 mg continuous, n = 99): 43 (43) no. (%)
- Treatment-related Dry mouth, grade 1 (8 mg continuous, n = 99): 32 (32) no. (%)
- Treatment-related Dry mouth, grade 2 (8 mg continuous, n = 99): 11 (11) no. (%)
- Treatment-related Dry mouth, grade 3 (8 mg continuous, n = 99): 0 no. (%)
- Treatment-related Dry skin, any grade (8 mg continuous, n = 99): 32 (32) no. (%)
- Treatment-related Dry skin, grade 1 (8 mg continuous, n = 99): 24 (24) no. (%)
- Treatment-related Dry skin, grade 2 (8 mg continuous, n = 99): 8 (8) no. (%)
- Treatment-related Dry skin, grade 3 (8 mg continuous, n = 99): 0 no. (%)
- Treatment-related Dysgeusia, any grade (8 mg continuous, n = 99): 35 (35) no. (%)
- Treatment-related Dysgeusia, grade 1 (8 mg continuous, n = 99): 22 (22) no. (%)
- Treatment-related Dysgeusia, grade 2 (8 mg continuous, n = 99): 12 (12) no. (%)
- Treatment-related Dysgeusia, grade 3 (8 mg continuous, n = 99): 1 (1) no. (%)
- Treatment-related Fatigue, any grade (8 mg continuous, n = 99): 21 (21) no. (%)
- Treatment-related Fatigue, grade 1 (8 mg continuous, n = 99): 8 (8) no. (%)
- Treatment-related Fatigue, grade 2 (8 mg continuous, n = 99): 11 (11) no. (%)
- Treatment-related Fatigue, grade 3 (8 mg continuous, n = 99): 2 (2) no. (%)
- Treatment-related Hand-foot syndrome, any grade (8 mg continuous, n = 99): 22 (22) no. (%)
- Treatment-related Hand-foot syndrome, grade 1 (8 mg continuous, n = 99): 5 (5) no. (%)
- Treatment-related Hand-foot syndrome, grade 2 (8 mg continuous, n = 99): 12 (12) no. (%)
- Treatment-related Hand-foot syndrome, grade 3 (8 mg continuous, n = 99): 5 (5) no. (%)
- Treatment-related Hyperphosphatemia, any grade (8 mg continuous, n = 99): 72 (73) no. (%)
- Treatment-related Hyperphosphatemia, grade 1 (8 mg continuous, n = 99): 49 (50) no. (%)
- Treatment-related Hyperphosphatemia, grade 2 (8 mg continuous, n = 99): 21 (21) no. (%)
- Treatment-related Hyperphosphatemia, grade 3 (8 mg continuous, n = 99): 2 (2) no. (%)
- Treatment-related Lacrimation increased, any grade (8 mg continuous, n = 99): 11 (11) no. (%)
- Treatment-related Lacrimation increased, grade 1 (8 mg continuous, n = 99): 8 (8) no. (%)
- Treatment-related Lacrimation increased, grade 2 (8 mg continuous, n = 99): 3 (3) no. (%)
- Treatment-related Lacrimation increased, grade 3 (8 mg continuous, n = 99): 0 no. (%)
- Treatment-related Nail dystrophy, any grade (8 mg continuous, n = 99): 16 (16) no. (%)
- Treatment-related Nail dystrophy, grade 1 (8 mg continuous, n = 99): 5 (5) no. (%)
- Treatment-related Nail dystrophy, grade 2 (8 mg continuous, n = 99): 5 (5) no. (%)
- Treatment-related Nail dystrophy, grade 3 (8 mg continuous, n = 99): 6 (6) no. (%)
- Treatment-related Onycholysis, any grade (8 mg continuous, n = 99): 16 (16) no. (%)
- Treatment-related Onycholysis, grade 1 (8 mg continuous, n = 99): 4 (4) no. (%)
- Treatment-related Onycholysis, grade 2 (8 mg continuous, n = 99): 10 (10) no. (%)
- Treatment-related Onycholysis, grade 3 (8 mg continuous, n = 99): 2 (2) no. (%)
- Treatment-related Paronychia, any grade (8 mg continuous, n = 99): 14 (14) no. (%)
- Treatment-related Paronychia, grade 1 (8 mg continuous, n = 99): 1 (1) no. (%)
- Treatment-related Paronychia, grade 2 (8 mg continuous, n = 99): 10 (10) no. (%)
